From patent US8609810B2, “Methylglyoxal-scavenging compounds and their use for the prevention and treatment of pain and/or hyperalgesia” (Ruprecht-Karls-Universitat Heidelberg, priority 2009, dated 2013) come the findings set out here.

In one data set the test system is healthy wild-type mice. Kind of data set: Exogenous methylglyoxal induces thermal hyperalgesia in vivo (hot plate). Here is the method:
Hyperalgesia was studied using the hot-plate assay with an electronically controlled hot-plate analgesia meter (Columbus Instructments, Columbus, Ohio) at 50° C.. Each mouse was removed from the hot plate when a jumping escape response occurred or hind paws were licked, or after a maximal cut-off time of 60 seconds. […] Three measurements were taken per animal at each of the specified time points and averaged. The difference in latency times between control and treated animals, was calculated as a measure of hyperalgesia. Healthy wild-type mice (Male; 10-12 weeks) were treated with various concentrations of methylglyoxal (0.7 μM-700 μM) by intravenous injection as 0.9% NaCl solution. Control groups were injected with 0.9% NaCl solution. After 3 hrs incubation time, hyperalgesia was assessed.

A short description of data set [1]: Plasma methylglyoxal measurement after i.v. injection of MG (HPLC). It is filed as in vivo, mice. The following applies: male, wild-type, mouse, iv, 5 μg MG i.v., within 10 min, read-out: plasma MG levels. Here is the method:
(B) 5 μg ([…]) MG was administered by i. v. injection as 0.9% NaCl solution to male healthy wild-type mice (10-12 weeks old) and MG-plasma concentrations were determined by HPLC at time point Oh, 10 min, 30 min, 1 h and 3 h. Data represent mean±SD (n=3 per time point).
(§1) The concentration of methylglyoxal in mouse plasma samples was determined by derivatization with 1,2-diamino-4,5-dimethoxybenezene using a previously described method. Blood samples were drawn into EDTA containing tubes from the retrobulbar vessels at time of sacrifice and centrifuged (2000 g; 5 mins). Plasma was removed and acidified with 10% TCA (0.1 ml). Samples were either analyzed immediately or stored at −80° C.

The subject of data set [2] is diabetes induced hyperalgesia in diabetic wild-type mice. Kind of data set: Diabetes induced hyperalgesia, hot-plate assay in STZ-induced diabetic wild-type mice. The data set is classed as in vivo. Here is the method:
Diabetic wildtype mice (Male; 18 wks) were injected with either 1 mg GERP or GEAP i.p. Following 1 day of treatment with either peptide, treatment was discontinued, after which consecutive measurements of hyperalgesia were performed to determine biological half-life of the peptide. This was determined to be ca. 80 hrs. Data represent the mean±SEM (N=10), ***P<0.0001, **P<0.001, *P<0.05, NSP>0.05 vs. GERP or GEAP control at respective time point; 000P<0.0001, NSP>0.05 vs. day 0.
Diabetes was induced by i.p. administration of STZ at 60 mg/kg, freshly dissolved in sterile sodium citrate (0.05M, pH4.5) on 6 subsequent days. Control animals received sodium citrate only. Diabetes was verified 16-25 days later by measurement of blood glucose levels in samples from the tail vein using ACCU-CHEK glucose sticks and a conventional Accutrend glucometer. In the first 2 weeks following the onset of diabetes, blood glucose was measured daily. If glucose levels occasionally recovered, an additional STZ injection was given on day 25-27. More than 90% of mice became diabetic within the first 4 weeks and were used throughout the experiment. As soon as blood glucose increased above 300 mg/dl, individual supplementation with 1-2 U Insulin Semilenta (40 U/ml) was started. Once glucose levels had stabilized, blood glucose was determined at least once a week for the first 2 months, and thereafter every second week. Tight blood glucose control kept individual blood glucose level stable throughout the experiments. At the end of the experiments, mice were sacrificed with CO2, and both sciatic nerves dissected, weighed and snap-frozen in liquid nitrogen.
(§2) Hyperalgesia was studied using the hot-plate assay with an electronically controlled hot-plate analgesia meter (Columbus Instructments, Columbus, Ohio) at 50° C.. Each mouse was removed from the hot plate when a jumping escape response occurred or hind paws were licked, or after a maximal cut-off time of 60 seconds. […] Three measurements were taken per animal at each of the specified time points and averaged. The difference in latency times between control and treated animals, was calculated as a measure of hyperalgesia.
To determine the effect of GERP on diabetes induced hyperalgesia, STZ-induced diabetic wild-type mice (Male; 18 wks) were injected intraperitioneal with either 1 mg of GERP001 or GEAP. After 24 hrs, hyperalgesia was assessed by hotplate assay.

Data set [3] deals with methylglyoxal-induced hyperalgesia in healthy wild-type mice. The data set can be described thus: Methylglyoxal-induced hyperalgesia, hot-plate assay (in vivo scavenging of methylglyoxal). The following applies: 1 mg i.p., MG 70 μM, FIG. 6A. Here is the method:
Healthy wildtype mice (10-12 weeks), were injected with 1 mg GERP (≡1.096×1015 Arg residues) or control peptide GEAP; i.p. 30 mins prior to injection with methylglyoxal (MG; 70 μM). Hyperalgesia was assessed 3 hrs after i.p injection by hot-plate assay. Data represent mean±SEM (N=10). GERP reduced methylglyoxal-induced hyperalgesia by ca. 60% in healthy wildtype mice, whereas the control peptide had no effect, showing that scavanging of methylglyoxal reduced hyperalgesia.
as §2
A synthetic peptide, GERP001, containing ten arginine residues per molecule act as an effective in vivo scavenger of methylglyoxal was designed in house and synthesized (GenWay Biotech, Inc. San Diego, Calif., USA). […] Hyperalgesia was assessed 3 hrs after administration of methylglyoxal.
In general terms: In hot-plate and tail-flick tests a longer latency is read as antinociception.

In a further data set the target is T1, glyoxalase-I (Mus musculus, UniProt Q9CPU0).
T1 construct: Healthy wild-type mice (Male); from tissue
T1 sequence (Q9CPU0 2-184 limits assumed): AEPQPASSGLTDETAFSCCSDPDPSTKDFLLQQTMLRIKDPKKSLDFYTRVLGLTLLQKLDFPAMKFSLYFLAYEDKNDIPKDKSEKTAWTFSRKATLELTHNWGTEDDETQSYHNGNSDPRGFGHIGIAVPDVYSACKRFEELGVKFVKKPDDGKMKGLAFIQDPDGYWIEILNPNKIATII
Kind of data set: In vivo inhibition of Glyoxalase I in healthy wild-type mice. Here is the method:
(A) Inhibition of Glyoxalase I by the cell permeable inhibitor S-p-Bromobenzylglutathione Cyclopentyl diester in male healthy wild-type mice (10-12 weeks old). Hyperalgesia was assessed by the hot plate assay at day 0 before application of the inhibitor. Thereafter, consecutive assessments of thermal hyperalgesia were made at selected time points (black circles), at which some mice also were sacrificed and plasma isolated for the determination of MG concentration (open circles). Data represent mean±SD (n=3 per time point). Different approaches were utilized to verify the hypothesized threshold-dependent effect of the MG/glyoxalase-system on hyperalgesia.
as §2, §1
Healthy wild-type mice (Male; 10-12 weeks) were pretreated for 48 hrs with 50 μg/g (i.p) of the cell permeable Glyoxalase I inhibitor, S-p-Bromobenzylglutathioine Cyclopentyl diester. After 48 hrs, hyperalgesia was assessed. Mice were then treated every 2nd day for a period of 15 days, during which consecutive assessments of hyperalgesia were made. At selected time points, mice sacrificed, and plasma isolated for determination of methylglyoxal concentration.

Where no end group is shown, it is not given here.

Take `CC(=O)C=O` [MG, 2-oxo-propanal]: in the data set with healthy wild-type mice (after MG application, data not shown), the “persistence of MG-induced changes resulting in hyperalgesia” value is recorded as “more than 3 hours”. In the data set on healthy wild-type mice (plasma MG at 15 min after MG application), the “plasma MG level needed for dose-dependent hyperalgesia (threshold concentration)” value is given as “exceeded 600 nM”. For the same compound, the “induction of heat hyperalgesia” value in the data set with healthy wild-type mice (systemic (i.v.) MG, 3 h after MG injection, hot plate) was “significant and dose-dependent induction of heat hyperalgesia”. In addition, the concentration at 10 min in data set [1] is over 800 nM.

As for “HHHHHHGGGGGERPGERPGERPGERPGERPGERPGERPGERPGERPGERP [GERP001]”, the “physiological / biological effective half-life” value in data set [2] (diabetic mice, 1 mg i.p., after treatment discontinued, regression analysis, linear decay model) is given as “ca. 80 hrs”. Also, the “biological effective half-life (preliminary experiments)” value in data set [2] (preliminary experiments, data fitted to an exponential decay (R2=0.9734)) is given as “ca. 13 hrs”. Besides, the “half-life of the effect of a single injection” value in data set [2] (single injection (1 mg)) came to 80 h.

In the case of “GEAP: a control peptide in which the arginine residues were substituted for alanine (HHHHHHGGGGGEPGEPGEPGEPGEPGEPGEPGEPGEPGEP; GEAP motif containing peptide)”, the “effect on thermal hyperalgesia in MG-treated healthy wild-type mice” value in data set [3] is on record as “no effect”. Moreover, the “effect on thermal hyperalgesia in diabetic mice” value in data set [2] (mice after 8 weeks of diabetes with manifest hyperalgesia, 1 mg i.p., FIG. 6C) was “no effect”.

For `NC(CCC(=O)NC(CSCc1ccc(Br)cc1)C(=O)NCC(=O)OC1CCCC1)C(=O)OC1CCCC1` (stereo not drawn) [S-p-Bromobenzylglutathione Cyclopentyl diester], the glyoxalase-I enzymatic activity result on glyoxalase-I (3 days after continuous inhibitor administration, injected every second day) was “fully inhibited”. On glyoxalase-I (6 days after initiation of treatment), the MG plasma concentration result was “exceeded 600 nM”. The thermal hyperalgesia result at glyoxalase-I (6 days after initiation of treatment, hot plate) was “significant thermal hyperalgesia”.
